# Where two headings read alike, the source gives them in different places.
# Assays:
# [1] = Three-cycle combination toxicity study with gemcitabine and cisplatin; assay type: in vivo, mouse; details: mice; SRA737 with IV gemcitabine and cisplatin, intermittent schedule over 18 days; high dose triplet group
# Text: Clinical combination of SRA737 and gemcitabine in some cases therefore elicited exacerbated hematological and GI toxicities.
# Single dose PK, dog = assay type: in vivo; details: Dog oral 5 mg/kg single dose
# Text: Several studies have been conducted to evaluate the PK properties of SRA737, such as the absorption (in vitro permeability assays and in vivo PK following IV and oral administration), distribution (in vivo tissue distribution and in vitro plasma protein binding) and metabolism (in vitro hepatocyte and CYP inhibition and induction studies) of SRA737.
# (§1) The PK of SRA737 have been determined in the mouse, rat, dog and monkey following oral and IV administration (Table 3). […] An acceptable terminal elimination t1/2 was also observed in each species. […] The plasma protein binding of SRA737 at 1 and 10 μM was examined in mouse, minipig, monkey and human plasma using ultracentrifugation and in dog plasma (10 μM) using rapid equilibrium dialysis.
# [2] = test system: cryopreserved hepatocytes; assay: Rank order of hepatocyte stability across species; assay type: in vitro ADME, human, mouse, rat, dog, minipig and monkey; details: 10 μM, up to 4 hours
# Experimental: The formation of SRA737-related metabolites was determined in cryopreserved hepatocytes from human, mouse, rat, dog, minipig and monkey samples after incubation with SRA737 at a nominal concentration of 10 μM for up to 4 hours. […] In the human hepatocyte preparation, approximately 67% of the parent remained after 4 hours of incubation compared to 75% and 7% in the rat and minipig preparations, respectively. Eight human SRA737 metabolites were observed. All SRA737 metabolites formed by human hepatocytes were also formed by monkey hepatocytes. Six metabolites were present at equal or greater abundance in the monkey.
# plasma protein [3] = assay: Plasma protein binding, ultracentrifugation, human plasma; assay type: in vitro ADME
# Experimental: as §1
# [4] = Excretion in urine and feces, rats; assay type: in vivo; details: rat, over 24 hours
# Experimental: The excretion of SRA737 has been studied in mice and rats administered SRA737 at either 5 mg/kg IV or 10 mg/kg orally. Urine and feces were collected for a 24-hour period after dosing. In mice, renal excretion of intact SRA737 was consistently low (less than 10% of dose) after both oral and IV administration. Following IV administration of SRA737, less than 8% of the dose was recovered as intact drug in the feces while after oral administration this figure was less than 3%. Excretion of intact SRA737 was lower in the rat than in the mouse with <1% of dose excreted renally over 24 hours and less than 1.5% of dose excreted into the feces over 24 hours.
# Chk1 autophosphorylation = assay: In vitro Chk1 inhibition after genotoxic chemotherapy (autophosphorylation, checkpoint arrest, cytotoxicity potentiation); assay type: cell-based
# plasma protein [5] = assay: Plasma protein binding, ultracentrifugation, mouse plasma; assay type: in vitro ADME; details: for Percentage Bound / Percentage Free: Mouse plasma
# Experimental: as §1
# plasma protein [6] = assay: Plasma protein binding, ultracentrifugation, monkey plasma; assay type: in vitro ADME
# Experimental: as §1
# cancer xenograft models = assay: In vivo efficacy studies in xenograft, PDX and syngeneic models; set-up: species or system mouse
# Experimental: A program of in vivo efficacy studies was performed to assess the activity of SRA737 in combination with genotoxic chemotherapy and targeted agents, and as monotherapy.
# One of these models also carried a MYCN amplification. A fourth HGSOC PDX model with partial resistance to PARPi was also sensitive to high dose SRA737 monotherapy.
# [7] = SRA737 plasma and tumor concentrations in HT29 xenograft model; assay type: in vivo, mice; details: mouse, plasma, oral, read-out: plasma concentration with anti-tumor activity in preclinical efficacy models
# Experimental: The effect of SRA737 on Gemcitabine induced CHK1 S296 autophosphorylation was assessed as described in Walton et al. (Oncotarget. 2016 January 19; 7(3): 2329-2342), herein incorporated by reference for all it teaches. Briefly, mice bearing HT29 tumor xenografts were administered (i) vehicle control or (ii) gemcitabine (100 mg/kg in saline, IV) or (iii) a combination of SRA737 (12.5, 25, 50 or 100 mg/kg in DTPW, oral) and gemcitabine (100 mg/kg) with SRA737 administered 24 hours following gemcitabine administration (n=3 per time point per treatment). […] Exposure in the tumor was greater than 10-fold higher than in plasma. The circulating plasma concentration at this 24-hour timepoint corresponded to a free drug concentration of approximately 6 nM (2 ng/mL) based on plasma protein binding in mice of 94%.
# Chk1 = biological target: T1, Chk1 (Homo sapiens, UniProt O14757); details: previously found; Walton et al. Oncotarget 2016; cited from earlier work
# T1 sequence (O14757 1-476): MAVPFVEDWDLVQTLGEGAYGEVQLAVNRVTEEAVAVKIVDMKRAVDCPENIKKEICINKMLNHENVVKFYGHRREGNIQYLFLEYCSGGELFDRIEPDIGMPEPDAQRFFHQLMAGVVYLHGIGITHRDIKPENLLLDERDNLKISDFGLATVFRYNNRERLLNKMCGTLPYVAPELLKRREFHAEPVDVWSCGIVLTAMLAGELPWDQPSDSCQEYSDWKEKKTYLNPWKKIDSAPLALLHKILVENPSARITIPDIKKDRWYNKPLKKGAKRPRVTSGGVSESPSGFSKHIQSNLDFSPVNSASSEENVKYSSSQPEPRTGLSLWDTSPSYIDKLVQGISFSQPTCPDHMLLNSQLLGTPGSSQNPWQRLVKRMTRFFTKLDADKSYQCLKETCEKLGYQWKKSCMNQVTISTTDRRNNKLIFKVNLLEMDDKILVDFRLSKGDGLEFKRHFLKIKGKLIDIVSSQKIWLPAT
# [8] = Parallel artificial membrane permeability assay (PAMPA); assay type: in vitro ADME
# Experimental: The membrane permeability of SRA737 was assessed in the parallel artificial membrane permeability assay (PAMPA) and Caco-2 assays. Permeability in the PAMPA assay was classified as low.
structure (smiles),measurement,setting,value
"N#Cc1cnc(Nc2cc(NCC3CNCCO3)c(C(F)(F)F)cn2)cn1 (stereo not drawn) [SRA737, 5-[[4-[[morpholin-2-yl]methylamino]-5-(trifluoromethyl)-2-pyridyl]amino]pyrazine-2-carbonitrile]",additional finding in triple combination study,[1],reversible intestinal epithelial degeneration
same,Foral,"Single dose PK, dog",86%
same,rank order of stability from most stable to least stable,[2],rat≈mouse>monkey˜human>>dog>>minipig
same,Percentage Bound,plasma protein [3]; 1 μM,87.7%
same,Percentage Free,plasma protein [3]; 1 μM,12.4%
same,Percentage Bound,plasma protein [3]; 10 μM,87.2%
same,Percentage Free,plasma protein [3]; 10 μM,12.8%
same,intact SRA737 excreted into the feces,[4],less than 1.5 % of dose
same,intact SRA737 excreted renally,[4],< 1 % of dose
same,inhibition of genotoxicity-induced checkpoint arrest,Chk1 autophosphorylation,dose-dependent inhibition
same,potentiation of the cytotoxicity of genotoxic chemotherapeutic agents and targeted agents,Chk1 autophosphorylation,dose-dependent potentiation
same,inhibition of genotoxic chemotherapy-induced Chk1 autophosphorylation,Chk1 autophosphorylation; data not shown,potently inhibited
same,Percentage Bound,plasma protein [5]; 1 μM,94.5%
same,Percentage Free,plasma protein [5]; 1 μM,5.5%
same,Percentage Bound,plasma protein [5]; 10 μM,93.4%
same,Percentage Free,plasma protein [5]; 10 μM,6.6%
same,plasma protein binding,plasma protein [5]; mouse,~94%
same,Percentage Bound,plasma protein [6]; 1 μM,88.8%
same,Percentage Free,plasma protein [6]; 1 μM,11.2%
same,Percentage Bound,plasma protein [6]; 10 μM,85.8%
same,Percentage Free,plasma protein [6]; 10 μM,14.2%
same,synergy with gemcitabine and carboplatin,"cancer xenograft models; Calu6 model, data not shown",Synergy
same,antitumor activity as a single agent,"cancer xenograft models; HGSOC PDX models harboring CCNE1 amplifications accompanied by TP53 mutations, data not shown",Significant antitumor activity
same,synergy with low-dose gemcitabine,"cancer xenograft models; HT29 (FIG. 5), OVCAR3 and SJSA-1 CDX models, PDX model of TNBC",Synergy was also observed
same,antitumor activity in combination with standard-dose gemcitabine,"cancer xenograft models; HT29, SJSA-1, SW620, Calu6, KPC-1 and patient-derived bladder carcinoma xenograft models, data not shown","Significant, dose-dependent antitumor activity"
same,synergy with irinotecan,"cancer xenograft models; HT29 model, data not shown",Synergy
same,single agent efficacy,"cancer xenograft models; OVCAR3, Eμ-Myc, MOLM-13, TH-MYC, MDA-MB-231, Renca and LL/2 models, data not shown",demonstrated single agent efficacy
same,sensitivity to high dose SRA737 monotherapy,cancer xenograft models; fourth HGSOC PDX model with partial resistance to PARPi,sensitive
same,antitumor activity in combination with a PD1/PD-L1 inhibitor,"cancer xenograft models; syngeneic mouse models mTmG, MC38 and Pan02, data not shown",Significant antitumor activity
same,concentration at 24 h,[7]; equivalent of 100 nM,~37.9 ng/mL
same,concentration at 24 h,"[7]; mice, sustained for 24 hours, PK/PD benchmark",100 nM
same,inhibitor of Chk1,Chk1,potent and selective inhibitor of Chk1 with limited off-target activity against other kinases
same,permeability in the PAMPA assay,[8],low

# Source: patent publication US20220226338A1, “Methods of Treating Cancer Using CHK1 Inhibitors” (Sierra Oncology, Inc., priority 2019, published 2022)
